According to patent US8148392B2, “2-indolyl imidazo [4,5-d] phenanthroline derivatives and their use in the treatment of cancer” (Lorus Therapeutics Inc., priority 2005, dated 2012):

Experiments:
[1] = tested on: metallothionein 1A (MT1A); test: Metallothionein 1A (MT1A) mRNA expression in HT-29 cells, real time PCR; assay type: cell-based, human; settings: HT-29, versus DMSO control, in words
Description: To determine whether compounds of Formula I can chelate zinc in cells, the effect of compound 3 on the expression level of a zinc-regulated gene, metallothionein 1A (MT1A), in human colon carcinoma HT-29 cells, was determined. HT-29 cells, 1×10^6 cells in 10 mL volume of the growth medium were seeded in 100 mm dishes and incubated overnight at 37° C. The medium was removed and replaced with the growth medium containing 35 μM ZnCl2, 1 μM or 4 μM TPEN (NNNN-tetrakis(2-pyridyl-methyl)ethylenediamine), or 1 μM or 4 μM compound 3, or 0.1% DMSO vehicle control. After incubation for 16 hours, the cells were detached by trypsinization, collected by centrifugation and washed once with PBS. Total RNA was extracted by using TRIZOL (Invitrogen, Life Technologies, Carlsbad, Calif.), following manufacturer's instruction, and the level of MT1A mRNA was measured by real time PCR using the comparative CT method as follows. First strand cDNA was synthesized from 200 ng total RNA in Biometra Tpersonal Thermal Cycler (Abgene, UK), using pd(N)6 random hexamer (Amersham Biosciences, Piscataway, N.J.) and SuperScript™ II Reverse Transcriptase kit (Invitrogen) by following manufacturer's protocol. Real-time PCR was performed in ABI Prism 7000 Sequence Detection System (Applied Biosystems Inc., ABI, Foster City, Calif.), using 5 μL of cDNA synthesized by above-mentioned procedure and respective TaqMan® Gene Expression Assays (ABI) by following ABI TaqMan® Universal PCR master mix protocol.
The effect of compound 3 and compound 7 treatment on the expressions of a zinc-storage protein meallothionein 1A (MT1A) (FIG. 29A), a copper transporter, Ctrl also known as SLC31A1 (FIG. 29B) and an iron transporter; transferrin receptor 1 (TfR1) (FIG. 29C) were measured and compared with a known zinc chelator TPEN, a copper chelator tetramine and an iron chelator DFO, respectively. Despite in vitro chelation of Cu^+2, increase in copper-sensitive gene after compound 3 treatment was transient.
HT-29 cells were treated with 1 μM compound 3 for the indicated time and MT1A gene expression was measured as follows. Total RNA was extracted using TRIZOL method and gene expression level was determined by quantitative reverse-transcription polymerase chain reaction (RT-PCR). MT1A gene expression was normalized with β-actin gene expression in the same sample. Fold change in MT1A was expressed relative to MT1A level of DMSO control at respective time points.
To verify that the MT1A gene expression reflected the intracellular zinc level, HT-29 cells were treated with 1 μM compound 3, 35 μM ZnCl2 or compound 3 and ZnCl2 together for 16 hr (FIG. 38B). MT1A gene expression was determined by RT-PCR as described above. MT1A gene expression was elevated in response to increased intracellular zinc ions in ZnCl2-treated cells.
The ability of compounds of Formula I to modulate gene expression of MT1A (FIG. 55A), MTF-1 (FIG. 55B), Cyclin D1 (FIG. 55C) and KLF4 (FIG. 55D) was determined by RT-PCR. HT-29 cells were treated with 1 μM compound 3 or compound 7, 35 μM ZnCl2, compound 3 and ZnCl2 together, or compound 7 and ZnCl2 together for 8 to 16 hr. The respective gene expression was normalized with β-actin gene expression in the same sample. Fold change in gene expression was expressed relative to the respective gene level of DMSO control.
The effect of compound 3 and compound 64 on gene expression changes in MT1A (FIG. 57A), MTF-1 (FIG. 57B), Cyclin D1 (FIG. 57C) and KLF4 (FIG. 57D) in HT-29 cells was determined by RT-PCR. HT-29 cells were treated with 1 μM compound 3 or compound 64, 35 μM ZnCl2, compound 3 and ZnCl2 together, or compound 64 and ZnCl2 together for 8 to 16 hr. The respective gene expression was normalized with β-actin gene expression in the same sample. Fold change in gene expression was expressed relative to the respective gene level of DMSO control.

[2] = tested on: intracellular zinc ions in HT-29 cells; test: Chelation of intracellular zinc in HT-29 cells, Zinquin fluorescence; assay type: cell-based, human; settings: HT-29 with or without pre-loading with 35 μM ZnCl2, 30 min
Description: To determine the chelation property of compound 3 with intracellular zinc ions, HT-29 cells, with or without pre-loaded with 35 μM ZnCl2 were treated with compound 3, a known zinc chelator TPEN or vehicle control (DMSO), and intracellular free zinc was determined by measuring Zinquin fluorescence as described in the preceding Example (FIG. 37). HT-29 cells (4×10^5 cells/group) were pre-treated with 35 μM ZnCl2 for 20 min, followed by addition of indicated concentrations of compound 3 or TPEN and 10 μM Zinquin for 30 min at 37° C., and the fluorescence count was measured (FIG. 37A). For measurement of chelation of endogenous zinc ions in HT-29 cells, HT-29 cells (1.5×10^6 cells/group) were treated with indicated concentrations of compound 3 and 10 μM Zinquin for 30 min at 37° C., and the fluorescence count was measured (FIG. 37B).

Which results are given for `c1ccc(CN(CCN(Cc2ccccn2)Cc2ccccn2)Cc2ccccn2)nc1` [TPEN, NNNN-tetrakis(2-pyridyl-methyl)ethylenediamine, reference compound]?
MT1A gene expression, change [1]: decreased the expression of MT1A; intracellular free zinc (Zinquin fluorescence) [2]: Dose-dependent decrease in both pre-loaded zinc and endogenous zinc levels
